Test results as given in patent publication US11142529B2 (priority 2013, dated 2021).

Tests used:
[1] = target: T1, α5β3γ2 GABAA receptors (Homo sapiens, UniProt P18507+P31644); assay: Binding activity of test compounds on GABAAR ([3H]Ro15-1788 inhibition, Ltk cell membranes)
T1 construct: membranes
Method: The binding was performed on Ltk cells stably expressing GABAA receptors: α1β1γ2, α2β3γ2, α3β3γ2 and α5β3γ2 (provided by Merck Co., NJ, USA). Cells were seeded in 100 mm culture plates in DMEM/F12 medium containing 10% serum and antibiotics in 5% C02 and allowed to grow for 1-2 days. GABAAR expression was then induced by dexamethasone as follows: 0.5 μM for 1 day for α5 containing and 2 μM for 3 days for α1, α2 and α3 containing GABAARs. After induction, cells were collected by scraping into Dulbecco's Phosphate buffered saline (DPBS, pH 7.4, Invitrogen, Carlsbad, Calif., USA) and centrifuged at 150×g for 10 min. The pellet was washed twice by re-suspension and centrifugation. The cell pellets from at least 5 different preps were combined, suspended in the binding assay buffer (50 mM KH2PO4; 1 mM EDTA; 0.2 M KCl, pH 7.4) and membranes prepared by sonication (3-5 times, 30 sec) using Branson Sonifier 150 (G.Heinmann, Germany). Protein content was determined using BCA assay (Bio-Rad Labs, Reinach, Switzerland) with Bovine Serum Albumin (Sigma Aldrich, St. Louis, Mo., USA) as the standard. Aliquots were prepared and stored at −20° C. for further use in binding assays.
Saturation binding curves were obtained by incubating membranes with increasing concentrations (0.01-8 nM) of [^3H]Ro15-1788 (Flumazepil, 75-85 Ci/mmol, PerkinElmer, MA, USA), with nonspecific binding measured in the presence of 10 μM diazepam.
All binding assays were performed for 1 h at 4° C. in assay buffer. The total assay volume was 0.5 ml containing 0.2 mg/ml protein for α5 and 0.4 mg/ml for α1, α2, and α3 containing GABAAR membranes. Incubations were terminated by filtration through GF/B filters using a 24-Cell Harvestor (Brandel, Gaithersburg, Md., USA) followed by 3 washes with ice-cold assay buffer. Filters were transferred to scintillation vials, 5 ml scintillation liquid added, vortex-mixed and kept in dark. Next day, radioactivity was obtained using a scintillation counter (Beckman Coulter, Brea, Calif., USA). All assays were performed in triplicate.
Saturation and inhibition curves were obtained using GraphPad Prism software (GraphPad Software, Inc., CA, USA).

[2] = target: T2, GABAA receptors (α5β2γ2) (Homo sapiens, UniProt P18507+P31644); assay: Positive allosteric modulator activity, potentiation of EC20 GABA current in oocytes; type: cell-based; conditions: read-out: GABA α5 functional potentiation
T2 construct: expressed in transfected cells; host or cells: oocytes injected with a mix of alpha, beta and gamma cDNA (1:1:10 by weight)
Method: On day 1, 1 ng/32 nL of GABAA […] cDNA was injected into one oocyte. Test starts on day 2. The cDNA injected to the oocytes was a mix of alpha, beta and gamma, their ratio is 1:1:10 (by weight) and the total weight of the mixed 3 subunits to be injected in one oocyte was 1 ng in 32 nl volume. The injected oocytes can also be tested on day 3. In such case, the cDNA amount injected to the oocytes should be reduced by 20%.
1). 8 oocytes were placed in 8 chambers of OpusXpress and superfused with Modified Barth's Saline (MBS) at 3 mL/min. Glass electrodes back-filled with 3M KCl (0.5-3 megaohms) were used.
3). […] Oocytes were washed with MBS for 5-10 min.
2). […] Divide Itest by IGABA to obtain potentiation (%).
3). Discard all tested oocytes, new oocytes were used and the above steps 1) and 2) were repeated to test second concentration of the same compound. Each oocyte was used for only one concentration test for a single test compound. The steps were repeated for other test compounds.

T1 sequence (P31644 32-462): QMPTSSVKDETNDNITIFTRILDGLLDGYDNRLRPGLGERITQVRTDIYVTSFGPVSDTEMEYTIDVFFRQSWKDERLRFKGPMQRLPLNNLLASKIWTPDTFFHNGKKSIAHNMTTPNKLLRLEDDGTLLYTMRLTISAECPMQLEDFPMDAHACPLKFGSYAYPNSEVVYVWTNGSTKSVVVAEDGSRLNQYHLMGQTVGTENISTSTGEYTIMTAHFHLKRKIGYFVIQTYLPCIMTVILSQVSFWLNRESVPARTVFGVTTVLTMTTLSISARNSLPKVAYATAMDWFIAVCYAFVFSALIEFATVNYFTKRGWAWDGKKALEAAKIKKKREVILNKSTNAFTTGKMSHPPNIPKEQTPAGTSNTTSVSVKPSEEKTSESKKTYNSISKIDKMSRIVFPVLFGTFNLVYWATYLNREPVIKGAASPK
T1 sequence (P28472 26-473 partner): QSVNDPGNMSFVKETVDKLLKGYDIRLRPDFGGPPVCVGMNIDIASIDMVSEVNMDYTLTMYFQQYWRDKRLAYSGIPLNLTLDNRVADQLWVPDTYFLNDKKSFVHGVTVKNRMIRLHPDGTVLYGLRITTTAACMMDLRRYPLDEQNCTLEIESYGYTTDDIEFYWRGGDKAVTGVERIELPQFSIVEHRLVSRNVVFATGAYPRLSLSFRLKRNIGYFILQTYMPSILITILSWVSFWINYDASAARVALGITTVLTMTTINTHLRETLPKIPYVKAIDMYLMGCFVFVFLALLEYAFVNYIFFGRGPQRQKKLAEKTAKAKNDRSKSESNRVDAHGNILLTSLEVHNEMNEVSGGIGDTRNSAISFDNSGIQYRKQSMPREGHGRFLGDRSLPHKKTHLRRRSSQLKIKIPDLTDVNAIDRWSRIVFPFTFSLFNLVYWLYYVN
T1 sequence (P18507 40-475): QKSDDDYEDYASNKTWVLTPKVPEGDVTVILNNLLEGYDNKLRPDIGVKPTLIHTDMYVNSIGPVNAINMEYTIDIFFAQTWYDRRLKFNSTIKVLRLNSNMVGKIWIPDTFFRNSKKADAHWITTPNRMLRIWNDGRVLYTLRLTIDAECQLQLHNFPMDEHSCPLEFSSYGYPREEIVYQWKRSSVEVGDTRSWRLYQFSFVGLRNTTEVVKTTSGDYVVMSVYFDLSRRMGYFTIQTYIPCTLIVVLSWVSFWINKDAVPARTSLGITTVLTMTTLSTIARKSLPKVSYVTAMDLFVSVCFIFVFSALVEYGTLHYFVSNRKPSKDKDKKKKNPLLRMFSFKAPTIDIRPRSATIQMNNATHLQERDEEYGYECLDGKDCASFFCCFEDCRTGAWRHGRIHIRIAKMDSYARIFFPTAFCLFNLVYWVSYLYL
T2 sequence (P31644 32-462): as the sequence (P31644 32-462) above
T2 sequence (P47870 25-512 partner limits assumed): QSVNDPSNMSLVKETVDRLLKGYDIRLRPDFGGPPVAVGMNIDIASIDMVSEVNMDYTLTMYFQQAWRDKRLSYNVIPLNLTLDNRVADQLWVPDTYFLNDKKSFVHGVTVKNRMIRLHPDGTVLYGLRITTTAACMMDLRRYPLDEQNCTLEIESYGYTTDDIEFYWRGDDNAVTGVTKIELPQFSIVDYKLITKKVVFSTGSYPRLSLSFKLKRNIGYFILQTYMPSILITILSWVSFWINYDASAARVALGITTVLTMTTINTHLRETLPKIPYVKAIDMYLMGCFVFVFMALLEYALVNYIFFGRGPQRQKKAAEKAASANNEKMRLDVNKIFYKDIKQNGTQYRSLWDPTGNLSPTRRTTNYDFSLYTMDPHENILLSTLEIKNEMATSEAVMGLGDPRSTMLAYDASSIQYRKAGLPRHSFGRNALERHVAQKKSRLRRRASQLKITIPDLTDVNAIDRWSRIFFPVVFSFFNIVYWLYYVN
T2 sequence (P18507 40-475): as the sequence (P18507 40-475) above

Structure (SMILES) | Ki [1] [nM] | activation at 0.1 µM [2] [%]
CCOC(=O)c1ncn2c1Cc1c(C)nnn1-c1cc(OC)ccc1-2 [Compound 1] | < 99 | 20 to 49
CCOC(=O)c1ncn2c1Cc1c(C)nnn1-c1cc(F)ccc1-2 [Compound 2] | < 99 | 20 to 49
CCOC(=O)c1ncn2c1Cc1c(C)nnn1-c1ccccc1-2 [Compound 3] | < 99 | 
CCOC(=O)c1ncn2c1Cc1c(Cc3ccccc3)nnn1-c1cc(OC)ccc1-2 [Compound 4] | < 99 | 
CCOC(=O)c1ncn2c1Cc1c(Cc3ccccc3)nnn1-c1ccccc1-2 [Compound 5] | < 99 | 
CCOC(=O)c1ncn2c1Cc1c(Cc3ccccc3)nnn1-c1cc(F)ccc1-2 [Compound 6] | < 99 | 
CCOC(=O)c1ncn2c1Cc1c(C)cnn1-c1cc(OC)ccc1-2 [Compound 7] | < 99 | 
CCOC(=O)c1ncn2c1Cc1c(Cc3ccccc3)cnn1-c1cc(OC)ccc1-2 [Compound 8] | < 99 | 
CCOC(=O)c1ncn2c1Cc1c(COc3ccccc3)nnn1-c1cc(OC)ccc1-2 [Compound 9] | < 99 | 20 to 49
CCOC(=O)c1ncn2c1Cc1c(COc3ccc(F)cc3)nnn1-c1cc(OC)ccc1-2 [Compound 10] | < 99 | 
CCOC(=O)c1ncn2c1Cc1c(COc3cccc(OC)c3)nnn1-c1cc(OC)ccc1-2 [Compound 11] | < 99 | 20 to 49
CCOC(=O)c1ncn2c1Cc1c(COc3ccc(C)cc3C)nnn1-c1cc(OC)ccc1-2 [Compound 12] | < 99 | 
CCOC(=O)c1ncn2c1Cc1c(Cc3ccc(C)cc3)nnn1-c1cc(F)ccc1-2 [Compound 44] | < 99 | 
CCOC(=O)c1ncn2c1Cc1c(Cc3ccc(Cl)cc3)nnn1-c1cc(F)ccc1-2 [Compound 45] | < 99 | 20 to 49
CCOC(=O)c1ncn2c1Cc1c(Cc3ccc(Cl)cc3)nnn1-c1ccccc1-2 [Compound 47] | < 99 | 
CCOC(=O)c1ncn2c1Cc1c(CN3CCCC3)nnn1-c1cc(OC)ccc1-2 [Compound 48] | < 99 | 20 to 49
CCOC(=O)c1ncn2c1Cc1c(CN3CCOCC3)nnn1-c1cc(OC)ccc1-2 [Compound 49] | < 99 | 
CCOC(=O)c1ncn2c1Cc1c(CN(C)Cc3ccccc3)nnn1-c1cc(OC)ccc1-2 [Compound 51] | < 99 | 
CCOC(=O)c1ncn2c1Cc1c(Cc3cccc(Cl)c3)nnn1-c1cc(OC)ccc1-2 [Compound 52] | < 99 | 
CCOC(=O)c1ncn2c1Cc1c(Cc3cccc(C#N)c3)nnn1-c1cc(OC)ccc1-2 [Compound 53] | < 99 | 

Structure (SMILES) | Ki [1] [nM] | activation at 0.1 µM [2] [%]
CCOC(=O)c1ncn2c1Cn1c(COc3ccccc3)nnc1-c1cc(OC)ccc1-2 [Compound 55] | < 99 | 20 to 49
CCOC(=O)c1ncn2c1Cn1c(COc3ccc(F)cc3)nnc1-c1cc(OC)ccc1-2 [Compound 56] | < 99 | 
CCOC(=O)c1ncn2c1Cn1c(COC)nnc1-c1cc(OC)ccc1-2 [Compound 103] | < 99 | 
CCOC(=O)c1ncn2c1Cn1c(Oc3ccccc3)nnc1-c1cc(OC)ccc1-2 [Compound 104] | < 99 | 
CCOC(=O)c1ncn2c1Cn1c(Oc3cccc(OC)c3)nnc1-c1cc(OC)ccc1-2 [Compound 105] | < 99 | 
CCOC(=O)c1ncn2c1Cn1c(Br)nnc1-c1cc(OC)ccc1-2 [Compound 106] | < 99 | 
CCOC(=O)c1ncn2c1Cc1c(COc3ccccc3)nnn1-c1cc(F)ccc1-2 [Compound 107] | < 99 | 
CCOC(=O)c1ncn2c1Cc1c(Cc3ccccc3Cl)nnn1-c1cc(OC)ccc1-2 [Compound 108] | < 99 | 
Cc1noc(-c2ncn3c2Cc2c(Cc4ccccc4)nnn2-c2cc(F)ccc2-3)n1 [Compound 109] | < 99 | 20 to 49
Cc1noc(-c2ncn3c2Cc2c(C)nnn2-c2cc(F)ccc2-3)n1 [Compound 110] |  | 20 to 49
CCOC(=O)c1ncn2c1Cc1c(Cc3cccnc3)nnn1-c1cc(C)ccc1-2 [Compound 111] | < 99 | 20 to 49
Cc1nnn2c1Cc1c(C(=O)OC(C)C)ncn1-c1ccc(F)cc1-2 [Compound 112] | < 99 | 
Cc1nnn2c1Cc1c(C(=O)OCC(C)(C)C)ncn1-c1ccc(F)cc1-2 [Compound 113] |  | > 50
Cc1nnn2c1Cc1c(C(=O)OCC(F)(F)F)ncn1-c1ccc(F)cc1-2 [Compound 114] | < 99 | > 50
COc1ccc2c(c1)-c1nnc(COc3ccccc3)n1Cc1c(-c3nc(C)no3)ncn1-2 [Compound 118] | < 99 | 20 to 49
COc1ccc2c(c1)-c1nnc(COc3ccccc3)n1Cc1c(C(=O)OC(C)C)ncn1-2 [Compound 120] | < 99 | 20 to 49
COc1ccc2c(c1)-c1nnc(COc3ccccc3)n1Cc1c(C#N)ncn1-2 [Compound 122] | < 99 | 
Cc1noc(-c2ncn3c2Cc2c(C)nnn2-c2ccccc2-3)n1 [Compound 126] | < 99 | 20 to 49
Cc1nc(-c2ncn3c2Cc2c(C)nnn2-c2ccccc2-3)no1 [Compound 127] | < 99 | 20 to 49
COCc1nnc2n1Cc1c(-c3nc(C)no3)ncn1-c1ccc(OC)cc1-2 [Compound 128] | < 99 | 20 to 49

Structure (SMILES) | Ki [1] [nM] | activation at 0.1 µM [2] [%]
COCc1nnc2n1Cc1c(Br)ncn1-c1ccc(OC)cc1-2 [Compound 129] | < 99 | 
COCc1nnc2n1Cc1c(-c3nc(C(C)C)no3)ncn1-c1ccc(OC)cc1-2 [Compound 130] | < 99 | 20 to 49
Cc1nnn2c1Cc1c(-c3nc(C(C)C)no3)ncn1-c1ccccc1-2 [Compound 132] | < 99 | 20 to 49
Cc1nnn2c1Cc1c(-c3noc(C(C)C)n3)ncn1-c1ccccc1-2 [Compound 133] | < 99 | 
CCOC(=O)c1ncn2c1Cn1c(COc3ccccc3)nnc1-c1cc(F)ccc1-2 [Compound 137] | < 99 | 20 to 49
Cc1nc(-c2ncn3c2Cc2c(C)nnn2-c2cc(F)ccc2-3)no1 [Compound 145] | < 99 | > 50
CC(C)c1nc(-c2ncn3c2Cn2c(COc4ccccc4)nnc2-c2cc(F)ccc2-3)no1 [Compound 147] | < 99 | 20 to 49
Cc1nc(-c2ncn3c2Cn2c(COc4ccccc4)nnc2-c2cc(F)ccc2-3)no1 [Compound 148] | < 99 | 20 to 49
Cc1nnn2c1Cc1c(-c3noc(C(F)(F)F)n3)ncn1-c1ccc(F)cc1-2 [Compound 150] | < 99 | 
Cc1nnn2c1Cc1c(-c3ncon3)ncn1-c1ccc(F)cc1-2 [Compound 151] | < 99 | 
CC(C)OC(=O)c1ncn2c1Cn1c(COc3ccccc3)nnc1-c1cc(F)ccc1-2 [Compound 156] | < 99 | 
N#Cc1ncn2c1Cn1c(COc3ccccc3)nnc1-c1cc(F)ccc1-2 [Compound 157] | < 99 | 
Fc1ccc2c(c1)-c1nnc(COc3ccccc3)n1Cc1c(-c3noc(C(F)(F)F)n3)ncn1-2 [Compound 159] | < 99 | 
C#Cc1ncn2c1Cc1c(C)nnn1-c1ccccc1-2 [Compound 161] | < 99 | 
COCc1nnc2n1Cc1c(-c3noc(C)n3)ncn1-c1ccc(OC)cc1-2 [Compound 164] | < 99 | 
COc1ccc2c(c1)-c1nnc(COCc3ccccc3)n1Cc1c(-c3noc(C)n3)ncn1-2 [Compound 165] | < 99 | 
COc1ccc2c(c1)-c1nnc(COCc3ccccc3)n1Cc1c(C#N)ncn1-2 [Compound 166] | < 99 | 
COc1ccc2c(c1)-n1nnc(C)c1Cc1c(-c3nc(C)no3)ncn1-2 [Compound 167] | < 99 | 
COc1ccc2c(c1)-n1nnc(COc3cccc(F)c3)c1Cc1c(-c3noc(C)n3)ncn1-2 [Compound 168] | < 99 | 
COCc1nnc2n1Cc1c(-c3noc(C(C)C)n3)ncn1-c1ccc(OC)cc1-2 [Compound 169] | < 99 | 
